We go through 33 compounds from patent US20090105305A1, “Therapeutic Agents - 550” (AstraZeneca AB, priority 2006, published 2009).

The target in one assay is T1, human Fatty Acid Synthase (Homo sapiens, UniProt P49327).
T1 construct: made in house
T1 sequence (P49327 whole entry): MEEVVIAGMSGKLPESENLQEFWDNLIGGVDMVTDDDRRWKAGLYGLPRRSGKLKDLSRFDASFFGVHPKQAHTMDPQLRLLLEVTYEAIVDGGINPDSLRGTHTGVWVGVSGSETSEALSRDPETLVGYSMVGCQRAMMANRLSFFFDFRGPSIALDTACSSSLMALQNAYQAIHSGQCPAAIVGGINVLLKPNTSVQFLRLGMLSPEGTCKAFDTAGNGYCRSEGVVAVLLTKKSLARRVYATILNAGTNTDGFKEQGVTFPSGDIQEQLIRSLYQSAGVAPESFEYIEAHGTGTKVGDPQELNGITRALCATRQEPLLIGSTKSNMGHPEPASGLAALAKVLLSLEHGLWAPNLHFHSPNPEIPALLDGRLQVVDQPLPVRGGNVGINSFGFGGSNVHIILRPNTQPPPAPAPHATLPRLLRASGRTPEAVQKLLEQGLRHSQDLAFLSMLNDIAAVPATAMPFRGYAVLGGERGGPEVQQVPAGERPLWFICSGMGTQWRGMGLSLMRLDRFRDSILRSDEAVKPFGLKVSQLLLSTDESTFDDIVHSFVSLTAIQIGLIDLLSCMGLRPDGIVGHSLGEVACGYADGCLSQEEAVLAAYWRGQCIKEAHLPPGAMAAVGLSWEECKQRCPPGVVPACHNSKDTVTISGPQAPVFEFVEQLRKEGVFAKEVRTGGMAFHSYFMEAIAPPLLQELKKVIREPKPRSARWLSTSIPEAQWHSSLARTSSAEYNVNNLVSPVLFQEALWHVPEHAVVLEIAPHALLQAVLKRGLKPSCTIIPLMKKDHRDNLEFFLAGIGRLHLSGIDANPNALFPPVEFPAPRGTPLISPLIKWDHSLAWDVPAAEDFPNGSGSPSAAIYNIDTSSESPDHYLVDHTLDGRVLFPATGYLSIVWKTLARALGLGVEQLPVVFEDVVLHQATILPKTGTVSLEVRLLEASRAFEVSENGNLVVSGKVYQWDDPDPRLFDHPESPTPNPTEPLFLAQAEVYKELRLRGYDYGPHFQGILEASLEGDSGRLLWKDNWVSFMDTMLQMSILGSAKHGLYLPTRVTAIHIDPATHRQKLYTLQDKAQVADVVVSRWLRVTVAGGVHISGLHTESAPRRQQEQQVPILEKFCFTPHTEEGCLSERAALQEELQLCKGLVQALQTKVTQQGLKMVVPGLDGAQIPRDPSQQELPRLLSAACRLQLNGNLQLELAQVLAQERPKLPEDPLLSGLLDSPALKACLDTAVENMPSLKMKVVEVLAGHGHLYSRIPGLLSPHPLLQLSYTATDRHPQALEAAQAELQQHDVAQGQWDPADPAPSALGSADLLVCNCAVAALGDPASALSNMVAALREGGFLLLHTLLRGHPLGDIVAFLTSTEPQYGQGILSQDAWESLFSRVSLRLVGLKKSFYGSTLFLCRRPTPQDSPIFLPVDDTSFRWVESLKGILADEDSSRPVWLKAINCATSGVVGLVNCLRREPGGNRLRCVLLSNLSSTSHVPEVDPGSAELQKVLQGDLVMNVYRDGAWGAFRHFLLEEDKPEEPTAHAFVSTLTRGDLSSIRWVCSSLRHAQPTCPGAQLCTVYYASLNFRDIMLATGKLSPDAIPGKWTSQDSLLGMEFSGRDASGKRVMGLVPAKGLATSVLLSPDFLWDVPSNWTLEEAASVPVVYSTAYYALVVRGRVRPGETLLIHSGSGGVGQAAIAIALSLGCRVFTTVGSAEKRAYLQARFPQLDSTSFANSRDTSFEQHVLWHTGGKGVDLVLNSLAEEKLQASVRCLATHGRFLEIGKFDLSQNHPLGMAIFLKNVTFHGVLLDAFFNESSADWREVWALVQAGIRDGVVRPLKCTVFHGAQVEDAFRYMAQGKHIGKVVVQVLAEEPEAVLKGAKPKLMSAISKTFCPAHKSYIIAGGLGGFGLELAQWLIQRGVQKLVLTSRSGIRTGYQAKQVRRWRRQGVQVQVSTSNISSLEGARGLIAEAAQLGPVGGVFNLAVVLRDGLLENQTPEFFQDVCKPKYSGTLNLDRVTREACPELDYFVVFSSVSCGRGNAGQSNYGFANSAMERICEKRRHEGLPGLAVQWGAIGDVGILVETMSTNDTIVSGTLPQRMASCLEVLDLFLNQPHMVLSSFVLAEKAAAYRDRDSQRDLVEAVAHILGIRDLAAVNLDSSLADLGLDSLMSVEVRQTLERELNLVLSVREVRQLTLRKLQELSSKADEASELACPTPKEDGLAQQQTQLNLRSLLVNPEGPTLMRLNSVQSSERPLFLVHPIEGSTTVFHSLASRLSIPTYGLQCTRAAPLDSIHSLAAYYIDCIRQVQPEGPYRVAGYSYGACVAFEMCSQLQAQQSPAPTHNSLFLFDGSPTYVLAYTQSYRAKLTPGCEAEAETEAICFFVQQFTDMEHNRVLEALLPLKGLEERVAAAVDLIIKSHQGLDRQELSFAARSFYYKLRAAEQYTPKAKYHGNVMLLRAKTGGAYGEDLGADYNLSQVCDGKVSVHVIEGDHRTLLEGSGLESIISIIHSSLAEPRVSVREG
The experiment in a line: Human FAS enzyme assay (decrease in NADPH fluorescence). Format: biochemical. Conditions: % inhibition at a concentration of 100 micromolar. Put shortly: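 In-house human FAS (0.4 μg) was preincubated 15 min at RT with compound and NADPH (added at 166.6 μM) in 0.1 M Tris pH 7.5, 1 mM glutathione, 0.05% BSA. Malonyl-/acetyl-CoA (500/150 μM in substrate mix) was then added for 60 min. Readout was NADPH fluorescence loss (ex 340/em 460) over a time-zero read, with IC50 from a sigmoid fit.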
For `Cc1ccc(C(=O)N2CCC(c3ccc(C#N)cc3)CC2)cc1NS(=O)(=O)c1c(C)noc1C` [Example 149, N-[5-[4-(4-cyanophenyl)piperidine-1-carbonyl]-2-methyl-phenyl]-3,5-dimethyl-1,2-oxazole-4-sulfonamide], the inhibition (in general, the drop in the measured response relative to a control, in per cent) at 100 µM came to 85%. The same measure, in the same setting: for `COCC(=O)NCCS(=O)(=O)Nc1cc(C(=O)N2CCC(c3ccc(C#N)cc3)CC2)ccc1C` [Example 87, N-[2-[[5-[4-(4-cyanophenyl)piperidine-1-carbonyl]-2-methyl-phenyl]sulfamoyl]ethyl]-2-methoxy-acetamide] the value was 82%; for `CSCc1ccc(C(=O)N2CCC(c3ccc(C#N)cc3)CC2)cc1NS(C)(=O)=O` [Example 176, N-[5-[4-(4-cyanophenyl)piperidine-1-carbonyl]-2-(methylsulfanylmethyl)phenyl]methanesulfonamide], 78%. On to `CCNC(=O)NCc1ccc(C2CCN(C(=O)c3ccc(C)c(NS(C)(=O)=O)c3)CC2)cc1` [Example 234, 1-ethyl-3-[[4-[1-(3-methanesulfonamido-4-methylbenzoyl)piperidin-4-yl]phenyl]methyl]urea], for which the inhibition at 100 µM was 78.3%. Still for that read-out and setting: for `CC(=O)NCCS(=O)(=O)Nc1cc(C(=O)N2CCC(c3ccc(C#N)cc3)CC2)ccc1C` [Example 78, N-[2-[[5-[4-(4-cyanophenyl)piperidine-1-carbonyl]-2-methyl-phenyl]sulfamoyl]ethyl]acetamide] the value was 95%; for `Cc1ccc(NS(=O)(=O)CCc2ccccc2)cc1C(=O)N1CCC(c2ccc(C#N)cc2)CC1` [Example 58, N-[3-[4-(4-cyanophenyl)piperidine-1-carbonyl]-4-methyl-phenyl]-2-phenyl-ethanesulfonamide], 92%; for `Cc1ccc(C(=O)N2CCC(c3ccc(C#N)cc3)CC2)cc1NS(=O)(=O)C1CCN(C(C)C)CC1` [Example 120, N-[5-[4-(4-cyanophenyl)piperidine-1-carbonyl]-2-methyl-phenyl]-1-propan-2-yl-piperidine-4-sulfonamide], 94%. The same measure, in the same setting: for `Cc1ccc(C(=O)N2CCC(c3ccc(C#N)cc3)CC2)cc1NS(=O)(=O)C1CC1` [Example 14, N-[5-[4-(4-cyanophenyl)piperidine-1-carbonyl]-2-methyl-phenyl]cyclopropanesulfonamide] the value was 89%; for `CCCS(=O)(=O)NCc1ccc(C2CCN(C(=O)c3ccc(C)c(NS(C)(=O)=O)c3)CC2)cc1` [Example 237, N-[[4-[1-(3-methanesulfonamido-4-methylbenzoyl)piperidin-4-yl]phenyl]methyl]propane-1-sulfonamide], 85.2%.

Regarding `Cc1ccc(C(=O)N2CCC(c3ccc(C#N)cc3)CC2)cc1NS(=O)(=O)C(C)(C)Cl` [Example 224, 2-chloro-N-[5-[4-(4-cyanophenyl)piperidine-1-carbonyl]-2-methylphenyl]propane-2-sulfonamide], the inhibition at 100 µM came to 108%. On the same count and under the same terms, under `CCCC(C)S(=O)(=O)Nc1ccc(C)c(C(=O)N2CCC(c3ccc(C#N)cc3)CC2)c1` (stereo not drawn) [Example 59, N-[3-[4-(4-cyanophenyl)piperidine-1-carbonyl]-4-methyl-phenyl]pentane-2-sulfonamide] stands 89%; under `COC(=O)NCc1ccc(C2CCN(C(=O)c3ccc(C)c(NS(C)(=O)=O)c3)CC2)cc1` [Example 239, Methyl N-[[4-[1-(3-methanesulfonamido-4-methylbenzoyl)piperidin-4-yl]phenyl]methyl]carbamate], 89.1%. On the same count and under the same terms, under `Cc1ccc(NS(=O)(=O)C(C)C)cc1C(=O)N1CCC(c2ccc(C#N)cc2)CC1` [Example 32, N-[3-[4-(4-cyanophenyl)piperidine-1-carbonyl]-4-methyl-phenyl]propane-2-sulfonamide] stands 85%. The same measure, in the same setting: for `Cc1ccc(C(=O)N2CCC(c3ccc(Cl)cc3)CC2)cc1NS(C)(=O)=O` [Example 155, N-[5-[4-(4-chlorophenyl)piperidine-1-carbonyl]-2-methyl-phenyl]methanesulfonamide] the value was 84%. In the case of `Cc1ccc(C(=O)N2CCC(c3ccc(C#N)cc3)CC2)cc1NS(=O)(=O)c1ccc(Cl)nc1` [Example 90, 6-chloro-N-[5-[4-(4-cyanophenyl)piperidine-1-carbonyl]-2-methyl-phenyl]pyridine-3-sulfonamide], the inhibition at 100 µM was determined as 79%. On the same count and under the same terms, for `CCCCOc1ccc(S(=O)(=O)Nc2ccc(C)c(C(=O)N3CCC(c4ccc(C#N)cc4)CC3)c2)cc1` [Example 198, 4-butoxy-N-[3-[4-(4-cyanophenyl)piperidine-1-carbonyl]-4-methylphenyl]benzene-sulfonamide] the value was 71%. Regarding `Cc1ccc(NS(=O)(=O)c2ccc(C#N)cc2)cc1C(=O)N1CCC(c2ccc(C#N)cc2)CC1` [Example 49, 4-cyano-N-[3-[4-(4-cyanophenyl)piperidine-1-carbonyl]-4-methyl-phenyl]benzenesulfonamide], the inhibition at 100 µM stood at 83%.

On to `Cc1ccc(C(=O)N2CCC(c3ccc(C#N)cc3)CC2)cc1NS(=O)(=O)CCO` [Example 109, N-[5-[4-(4-cyanophenyl)piperidine-1-carbonyl]-2-methyl-phenyl]-2-hydroxy-ethanesulfonamide], for which the inhibition at 100 µM worked out at 94%.

As to `Cc1ccc(NS(=O)(=O)c2ccc(Cl)s2)cc1C(=O)N1CCC(c2ccc(C#N)cc2)CC1` [Example 45, 5-chloro-N-[3-[4-(4-cyanophenyl)piperidine-1-carbonyl]-4-methyl-phenyl]thiophene-2-sulfonamide], the inhibition at 100 µM worked out at 83%. Still for that read-out and setting: for `Cc1ccc(C(=O)N2CCC(c3ccc(Oc4ccccn4)cc3)CC2)cc1NS(C)(=O)=O` [Example 187, N-[2-methyl-5-[4-(4-pyridin-2-yloxyphenyl)piperidine-1-carbonyl]phenyl]methanesulfonamide] the value was 100%; for `COc1ccc(NS(C)(=O)=O)cc1C(=O)N1CCC(c2ccc(C#N)cc2)CC1` [Example 197, N-[3-[4-(4-cyanophenyl)piperidine-1-carbonyl]-4-methoxyphenyl]methanesulfonamide], 71%. Take `Cc1ccc(NS(C)(=O)=O)cc1C(=O)N1CCC(c2ccc(C#N)cc2)CC1` [Example 7, N-[3-[4-(4-cyanophenyl)piperidine-1-carbonyl]-4-methyl-phenyl]methanesulfonamide]: the inhibition at 100 µM was found to be 78%.

Regarding `Cc1ccc(C(=O)N2CCC(c3ccc(CNC(=O)CO)cc3)CC2)cc1NS(C)(=O)=O` [Example 241, 2-hydroxy-N-[[4-[1-(3-methanesulfonamido-4-methylbenzoyl)piperidin-4-yl]phenyl]methyl]acetamide], the inhibition at 100 µM came out at 81.5%.

Turning to `Cc1ccc(C(=O)N2CCC(c3ccc(-c4ccccn4)cc3)CC2)cc1NS(C)(=O)=O` [Example 173, N-[2-methyl-5-[4-(4-pyridin-2-ylphenyl)piperidine-1-carbonyl]phenyl]methanesulfonamide], the inhibition at 100 µM was 64%.

Still in this assay, the particulars now being: compounds excluded from the claims by proviso.
Take `Cc1ccc(C(=O)N2CCC(c3ccccc3)CC2)cc1NS(=O)(=O)c1ccc(Cl)cc1` [4-chloro-N-[2-methyl-5-(4-phenylpiperidine-1-carbonyl)phenyl]benzenesulfonamide]: the “IC50s in the range of about 0.001 μM to about 30 μM” value (“IC50s in the range” below) was “do not have IC50s in the range of about 0.001 μM to about 30 μM”.

For the compound `Cc1ccc(C(=O)N2CCC(c3ccc(C(=O)N4CCCN(C)CC4)cc3)CC2)cc1NS(C)(=O)=O` [N-[2-methyl-5-[4-[4-(4-methyl1,4-diazepane-1-carbonyl)phenyl]piperidine-1-carbonyl]phenyl]methanesulfonamide], the “IC50s in the range” value is on record as “do not have IC50s in the range of about 0.001 μM to about 30 μM”.

As for `Cc1ccc(C(=O)N2CCC(c3cccc(C#N)c3)CC2)cc1NS(C)(=O)=O` [N-[5-[4-(3-cyanophenyl)piperidine-1-carbonyl]-2-methylphenyl]methanesulfonamide], the “IC50s in the range” value was “do not have IC50s in the range of about 0.001 μM to about 30 μM”. On the same count and under the same terms, under `Cc1ccc(C(=O)N2CCC(c3ccc(CC(=O)N(C)C)cc3)CC2)cc1NS(C)(=O)=O` [2-[4-[1-(3-methanesulfonamido-4-methylbenzoyl)piperidin-4-yl]phenyl]-N,N-dimethylacetamide] stands “do not have IC50s in the range of about 0.001 μM to about 30 μM”; under `COC(=O)c1ccc(C2CCN(C(=O)c3ccc(C)c(NS(C)(=O)=O)c3)CC2)cc1` [Methyl 4-[1-(3-methanesulfonamido-4-methylbenzoyl)piperidin-4-yl]benzoate], “do not have IC50s in the range of about 0.001 μM to about 30 μM”. With `Cc1ccc(C(=O)N2CCC(c3ccc(CC(=O)O)cc3)CC2)cc1NS(=O)(=O)C1CCCCC1` [2-[4-[1-[3-(cyclohexylsulfonylamino)-4-methylbenzoyl]piperidin-4-yl]phenyl]acetic acid], the “IC50s in the range” value is reported as “do not have IC50s in the range of about 0.001 μM to about 30 μM”. Turning to `Cc1ccc(C(=O)N2CCC(c3ccccc3C#N)CC2)cc1NS(C)(=O)=O` [N-[5-[4-(2-cyanophenyl)piperidine-1-carbonyl]-2-methylphenyl]methanesulfonamide], the “IC50s in the range” value is recorded as “do not have IC50s in the range of about 0.001 μM to about 30 μM”. On the same count and under the same terms, for `Cc1ccc(C(=O)N2CCC(c3ccc(C#N)cc3)CC2)cc1NS(=O)(=O)c1ccccc1C(=O)O` [2-[[5-[4-(4-cyanophenyl)piperidine-1-carbonyl]-2-methylphenyl]sulfamoyl]benzoic acid] the value was “do not have IC50s in the range of about 0.001 μM to about 30 μM”. Same read-out and setting: for `Cc1ccc(C(=O)N2CCC(c3cccc(Cl)c3)CC2)cc1NS(C)(=O)=O` [N-[5-[4-(3-chlorophenyl)piperidine-1-carbonyl]-2-methylphenyl]methanesulfonamide] the value was “do not have IC50s in the range of about 0.001 μM to about 30 μM”.
